# Assay: Measurement of log P values by HPLC on reversed phase columns (methods [a] pH 2.3, [b] pH 2.7, [c] pH 7.8)
# Assay type: physicochemical
# Conditions: HPLC on reversed phase column, method [b], pH 2.7
# How it was run: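 Determined per EEC Directive 79/831 Annex V.A8 by reversed-phase HPLC, 10-95% acetonitrile gradient: [a] pH 2.3, 0.1% phosphoric acid; [b] LC-MS, pH 2.7, 0.1% formic acid; [c] LC-MS, pH 7.8, 0.001 molar ammonium hydrogen carbonate. Calibrated with C3-C16 alkan-2-ones by retention-time interpolation.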
row,logP,Structure (SMILES)
1,3.34^[b],O=C(NC1CCC1c1ccccc1C(F)(F)F)c1ncccc1Br (stereo not drawn) [Example 691]
2,3.36^[b],O=C(N[C@@H]1CC[C@@H]1c1ccc(Cl)cc1C(F)(F)F)c1ccccc1[N+](=O)[O-] (relative stereo) [Example 713]
3,3.36^[b],O=C(N[C@@H]1CC[C@H]1c1cccc(F)c1C(F)(F)F)c1c(F)cccc1F (relative stereo) [Example 640]
4,3.81^[b],O=C(N[C@@H]1CC[C@@H]1c1cccc(F)c1C(F)(F)F)c1ncc(C(F)(F)F)cc1Cl (relative stereo) [Example 603]

# Same assay, conditions: HPLC on reversed phase column, method [c], pH 7.8
row,logP,Structure (SMILES)
1,3.27^[c];,O=C(NC1CCC1c1ccccc1C(F)(F)F)c1ncccc1Br (stereo not drawn) [Example 691]

# Same assay, conditions: HPLC on reversed phase columns, method [b], pH 2.7
row,logP,Structure (SMILES)
1,2.13^[b],Cc1nn(C)cc1C(=O)NC1CC1c1ccc(F)cc1 (stereo not drawn) [Example 16]
2,3.21^[b],N#Cc1ncccc1C(=O)N[C@@H]1CCC[C@@H]1c1ccc(F)c(F)c1 (relative stereo) [Example 74]
3,3.24^[b],O=C(NC1CC1(F)c1ccc(Cl)cc1)c1ccccc1C(F)(F)F (stereo not drawn) [Example 754]
4,3.87^[b],Cc1nc(C(F)(F)F)c(C(=O)NC2CC2c2ccc(F)cc2)s1 (stereo not drawn) [Example 26]
5,3.31^[b],O=C(N[C@@H]1C[C@H]1c1ccccc1Cl)c1ccccc1C(F)(F)F (relative stereo) [Example 51]
6,3.04^[b],N#Cc1ccccc1C(=O)N[C@@H]1CCC[C@@H]1c1ccc(F)c(F)c1 (relative stereo) [Example 73]
7,2.17^[b],O=C(NC1CCC1c1c(Cl)cccc1Cl)c1cccnc1 (stereo not drawn) [Example 724]

# Same assay, conditions: HPLC reversed phase, method [b] (pH 2.7)
row,logP,Structure (SMILES)
1,2.86^[b],Cc1nc(C)c(C(=O)NC2CCCC2c2ccccc2Br)s1 (stereo not drawn) [Example 344]
2,3.88^[b],O=C(NC1CCCCC1c1ccccc1Cl)c1ccccc1Cl (stereo not drawn) [Example 381]
3,3.86^[b],O=C(NC1CCCC1c1ccc(C(F)(F)F)cc1)c1ccccc1I (stereo not drawn) [Example 363]
4,3.65^[b],O=C(NC1CCCCC1c1ccc(Cl)cc1)c1ccccc1Cl (stereo not drawn) [Example 371]
5,3.02^[b],Cn1cc(C(=O)NC2CCC2c2ccc(F)cc2C(F)(F)F)c(C(F)F)n1 (stereo not drawn) [Example 484]
6,2.75^[b],O=C(NC1CCC1c1c(F)cccc1F)c1ccccc1 (stereo not drawn) [Example 514]
7,4.10^[b],O=C(NC1CCCCC1c1ccccc1Br)c1ccccc1C(F)(F)F (stereo not drawn) [Example 407]
8,3.68^[b],O=C(N[C@@H]1CC[C@H]1c1cccc(F)c1C(F)(F)F)c1ccccc1I (relative stereo) [Example 590]

row,Structure (SMILES),logP
1,O=C(NC1CC1c1ccc(Cl)cc1)c1ccccc1I (stereo not drawn) [Compound 273],2.94^[b]

# Same assay, conditions: HPLC reversed phase, method [c] pH 7.8
row,Structure (SMILES),logP
1,O=C(NC1CCCC1c1ccc(C(F)(F)F)cc1)c1ccccc1I (stereo not drawn) [Example 363],3.79^[c];
2,O=C(NC1CC1c1ccc(Cl)cc1)c1ccccc1I (stereo not drawn) [Compound 273],2.88^[c];

# Same assay, conditions: method [b], HPLC reversed phase, pH 2.7
row,logP,Structure (SMILES)
1,3.29^[b],O=C(NC1CC1c1ccccc1C(F)(F)F)c1ccccc1C(F)(F)F (stereo not drawn) [Example 233]
2,3.51^[b],Cn1nc(C(F)F)c(C(=O)NC2CCCCC2c2ccccc2)c1Cl (stereo not drawn) [Example 183]
3,4.21^[b],Fc1ccc(C2CCCC2NC(=S)C2=C(C(F)(F)F)OCCS2)cc1F (stereo not drawn) [Example 150]
4,2.63^[b],Cn1nc(C(F)(F)F)c(C(=O)NC2CC2c2ccccc2)c1F (stereo not drawn) [Example 178]
5,3.17^[b],Cc1occc1C(=O)N[C@@H]1CCC[C@H]1c1ccc(F)c(F)c1 (relative stereo) [Example 133]
6,3.56^[b],O=C(N[C@@H]1CCC[C@H]1c1ccc(F)c(F)c1)c1ccccc1I (relative stereo) [Example 131]

row,Structure (SMILES),logP
1,O=C(NC1CC1c1ccc(Cl)cc1Cl)c1ccccc1C(F)(F)F (stereo not drawn) [Example 210],3.73^[b]
2,O=C(NC1CC1c1ccc(Cl)cc1)c1ccccc1I (stereo not drawn) [Example 199],3.24^[b]

# Same assay, conditions: method [c], HPLC reversed phase, pH 7.8
row,Structure (SMILES),logP
1,O=C(NC1CC1c1ccc(Cl)cc1Cl)c1ccccc1C(F)(F)F (stereo not drawn) [Example 210],3.62^[c];
2,O=C(NC1CC1c1ccc(Cl)cc1)c1ccccc1I (stereo not drawn) [Example 199],3.19^[c];

# Same assay, conditions: reversed phase HPLC columns, HPLC-MS, method letter not given; read-out: log P
row,chromatographic logP,Structure (SMILES)
1,3.06,"O=C(NC1CCC1c1ccccc1Cl)c1ncccc1Cl (stereo not drawn) [Compound 238, trans-3-chloro-N-[2-(2-chlorophenyl)cyclobutyl]pyridine-2-carboxamide]"

# Same assay, conditions: reversed phase HPLC columns, pH 2.7, HPLC on reversed phase columns, method [b] (pH 2.7); read-out: logP
row,chromatographic logP,Structure (SMILES)
1,2.78,O=C(N[C@@H]1C[C@]1(F)c1ccc(Cl)cc1)c1ccccc1Cl [Example 752]

# Same assay, conditions: reversed phase HPLC columns, pH 2.7, method [b], HPLC reversed phase, pH 2.7; read-out: logP
row,chromatographic logP,Structure (SMILES)
1,3.06,"O=C(NC1CCC1c1ccccc1Cl)c1ncccc1Cl (stereo not drawn) [Compound 238, trans-3-chloro-N-[2-(2-chlorophenyl)cyclobutyl]pyridine-2-carboxamide]"
